Consider 29 molecules from US9452997B2, “Piperidine and piperazine derivatives as autotaxin inhibitors” (Merck Patent GmbH, priority 2009, dated 2016).

Some results are limits rather than exact numbers.

The assay deals with T1, Recombinant autotaxin (Homo sapiens, UniProt Q13822).
T1 construct: made in house; host or cells: Hi5 insect cells (baculovirus)
Put plainly: Autotaxin assay (Amplex Red, LPC substrate). The assay is classed as biochemical. Conditions: recombinant autotaxin, LPC substrate, Amplex Red detection; values given as upper bounds. A digest of the protocol: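 Recombinant autotaxin (Hi5 baculovirus, 16 ng) pre-incubated with compound 30 min at 22° C, then reacted with 75 μM egg LPC for 90 min at 37° C. Choline released is coupled to H2O2 and Amplex Red fluorescence (ex 485/em 612 nm). IC50 from ten 1:3 dilutions from 30 μM, duplicates, normalised to 500 μM C14 LPA.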
`O=C(Cc1ccc2[nH]nnc2c1)N1CCC(N2CCN(C(=O)Cc3ccc(C(F)(F)F)cc3)CC2)CC1` [Compound 138, 2-(1H-Benzotriazol-5-yl)-1-(4-{4-[2-(4-trifluoromethyl-phenyl)-acetyl]-piperazin-1-yl}-piperidin-1-yl)-ethanone]: the IC50 was less than 10000 nM.

Take `O=C(Cc1ccc2[nH]nnc2c1)N1CCC(N2CCN(C(=O)OCc3cc(C(F)(F)F)cc(C(F)(F)F)c3)CC2)CC1` [Compound 139, 4-[1-(2-1H-Benzotriazol-5-yl-acetyl)-piperidin-4-yl]-piperazine-1-carboxylic acid 3,5-bis-trifluoromethyl-benzyl ester]: the IC50 is less than 1000 nM.

For the molecule `O=C(Cc1ccc2[nH]nnc2c1)N1CCC(N2CCN(C(=O)Nc3cc(Cl)cc(Cl)c3)CC2)CC1` [Compound 140, 4-[1-(2-1H-Benzotriazol-5-yl-acetyl)-piperidin-4-yl]-piperazine-1-carboxylic acid (3,5-dichloro-phenyl)-amide], the IC50 was less than 10000 nM.

For `O=C(Cc1ccc2[nH]nnc2c1)N1CCC(N2CCN(C(=O)Cc3cc(C(F)(F)F)cc(C(F)(F)F)c3)CC2)CC1` [Compound 141, 2-(1H-Benzotriazol-5-yl)-1-(4-{4-[2-(3,5-bis-trifluoromethyl-phenyl)-acetyl]-piperazin-1-yl}-piperidin-1-yl)-ethanone], the IC50 is less than 10000 nM.

Take `O=C(Cc1cc(C(F)(F)F)cc(C(F)(F)F)c1)N1CCN(C2CCN(C(=O)c3ccc4[nH]c(=O)oc4c3)CC2)CC1` [Compound 142, 6-(4-{4-[2-(3,5-Bis-trifluoromethyl-phenyl)-acetyl]-piperazin-1-yl}-piperidine-1-carbonyl)-3H-benzooxazol-2-one]: the half-inhibitory concentration (IC50) is less than 10000 nM.

`O=C(OCc1ccc(OC(F)(F)F)c(Cl)c1)N1CCC(N2CCN(C(=O)c3ccc4[nH]nnc4c3)CC2)CC1` [Compound 143, 4-[4-(1H-Benzotriazole-5-carbonyl)-piperazin-1-yl]-piperidine-1-carboxylic acid 3-chloro-4-trifluoromethoxy-benzyl ester]: the half-inhibitory concentration (IC50) was less than 1000 nM.

As for `O=C(OCc1c(F)c(F)c(C(F)(F)F)c(F)c1F)N1CCC(N2CCN(C(=O)c3ccc4[nH]nnc4c3)CC2)CC1` [Compound 144, 4-[4-(1H-Benzotriazole-5-carbonyl)-piperazin-1-yl]-piperidine-1-carboxylic acid 2,3,5,6-tetrafluoro-4-trifluoromethyl-benzyl ester], the IC50 was less than 1000 nM.

As to `O=C(OCc1ccc(Cl)c(OC(F)(F)F)c1)N1CCN(C2CCN(C(=O)c3ccc4[nH]nnc4c3)CC2)CC1` [Compound 145, 4-[1-(1H-Benzotriazole-5-carbonyl)-piperidin-4-yl]-piperazine-1-carboxylic acid 4-chloro-3-trifluoromethoxy-benzyl ester], the IC50 is less than 10000 nM.

With `O=C(OCc1cc(Cl)cc(Br)c1)N1CCN(C2CCN(C(=O)c3ccc4[nH]nnc4c3)CC2)CC1` [Compound 146, 4-[1-(1H-Benzotriazole-5-carbonyl)-piperidin-4-yl]-piperazine-1-carboxylic acid 3-bromo-5-chloro-benzyl ester], the IC50 was less than 1000 nM.

With `Cc1cc(C)cc(COC(=O)N2CCN(C3CCN(C(=O)c4ccc5[nH]nnc5c4)CC3)CC2)c1` [Compound 147, 4-[1-(1H-Benzotriazole-5-carbonyl)-piperidin-4-yl]-piperaizne-1-carboxylic acid 3,5-dimethyl-benzyl ester], the half-maximal inhibitory concentration (IC50) is less than 1000 nM.

For `O=C(OCc1cc(Br)cc(Br)c1)N1CCN(C2CCN(C(=O)c3ccc4[nH]nnc4c3)CC2)CC1` [Compound 148, 4-[1-(1H-Benzotriazole-5-carbonyl)-piperidin-4-yl]-piperazine-1-carboxylic acid 3,5-dibromo-benzyl ester], the IC50 is less than 1000 nM.

With `CSc1ccc(COC(=O)N2CCN(C3CCN(C(=O)c4ccc5[nH]nnc5c4)CC3)CC2)cc1` [Compound 149, 4-[1-(1H-Benzotriazole-5-carbonyl)-piperidin-4-yl]-piperazine-1-carboxylic acid 4-methylsulfanyl-benzyl ester], the IC50 is less than 10000 nM.

Turning to `COc1cc(COC(=O)N2CCN(C3CCN(C(=O)c4ccc5[nH]nnc5c4)CC3)CC2)cc(OC)c1` [Compound 150, 4-[1-(1H-Benzotriazole-5-carbonyl)-piperidin-4-yl]-piperazine-1-carboxylic acid 3,5-dimethoxy-benzyl ester], the IC50 was less than 10000 nM.

With `CCc1ccc(COC(=O)N2CCN(C3CCN(C(=O)c4ccc5[nH]nnc5c4)CC3)CC2)cc1` [Compound 151, 4-[1-(1H-Benzotriazole-5-carbonyl)-piperidin-4-yl]-piperazine-1-carboxylic acid 4-ethyl-benzyl ester], the IC50 was less than 1000 nM.

As for `O=C(OCc1cc(F)cc(Cl)c1)N1CCN(C2CCN(C(=O)c3ccc4[nH]nnc4c3)CC2)CC1` [Compound 152, 4-[1-(1H-Benzotriazole-5-carbonyl)-piperidin-4-yl]-piperazine-1-carboxylic acid 3-chloro-5-fluoro-benzyl ester], the concentration for half-maximal inhibition (IC50) is less than 1000 nM.

`O=C(OCc1cc(C(F)(F)F)cc(C(F)(F)F)c1)N1CCN(C2CCN(S(=O)(=O)c3ccc4[nH]c(=O)sc4c3)CC2)CC1` [Compound 153, 4-[1-(2-Oxo-2,3-dihydro-benzothiazole-6-sulfonyl)-piperidin-4-yl]-piperazine-1-carboxylic acid 3,5-bis-trifluoromethyl-benzyl ester]: the IC50 was less than 10000 nM.

Take `O=C(OCc1cc(F)cc(Br)c1)N1CCN(C2CCN(C(=O)c3ccc4[nH]nnc4c3)CC2)CC1` [Compound 154, 4-[1-(1H-Benzotriazole-5-carbonyl)-piperidin-4-yl]-piperazine-1-carboxylic acid 3-bromo-5-fluoro-benzyl ester]: the IC50 is less than 1000 nM.

As for `O=C(OCc1ccc(Br)cc1)N1CCN(C2CCN(C(=O)c3ccc4[nH]nnc4c3)CC2)CC1` [Compound 155, 4-[1-(1H-Benzotriazole-5-carbonyl)-piperidin-4-yl]-piperazine-1-carboxylic acid 4-bromo-benzyl ester], the IC50 is less than 1000 nM.

Consider `O=C(OCc1ccc(Br)cc1F)N1CCN(C2CCN(C(=O)c3ccc4[nH]nnc4c3)CC2)CC1` [Compound 156, 4-[1-(1H-Benzotriazole-5-carbonyl)-piperidin-4-yl]-piperazine-1-carboxylic acid 4-bromo-2-fluoro-benzyl ester], for which the IC50 was less than 10000 nM.

As to `O=C(OCc1c(F)cc(Br)cc1F)N1CCN(C2CCN(C(=O)c3ccc4[nH]nnc4c3)CC2)CC1` [Compound 157, 4-[1-(1H-Benzotriazole-5-carbonyl)-piperidin-4-yl]-piperazine-1-carboxylic acid 4-bromo-2,6-difluoro-benzyl ester], the IC50 is less than 10000 nM.

`O=C(OCc1ccc(C(F)(F)F)c(F)c1)N1CCN(C2CCN(C(=O)c3ccc4[nH]nnc4c3)CC2)CC1` [Compound 158, 4-[1-(1H-Benzotriazole-5-carbonyl)-piperidin-4-yl]-piperazine-1-carboxylic acid 3-fluoro-4-trifluoromethyl-benzyl ester]: the IC50 is less than 1000 nM.

On to `O=C(c1ccc2[nH]nnc2c1)N1CCC(N2CCN(C(=O)c3cc4cc(Br)ccc4o3)CC2)CC1` [Compound 159, (1H-Benzotriazol-5-yl)-{4-[4-(5-bromo-benzofuran-2-carbonyl)-piperazin-1-yl]-piperidin-1-yl}-methanone], for which the IC50 is less than 10000 nM.

As for `O=C(COc1ccc(OC(F)(F)F)cc1)N1CCN(C2CCN(C(=O)c3ccc4[nH]nnc4c3)CC2)CC1` [Compound 160, 1-{4-[1-(1H-Benzotriazole-5-carbonyl)-piperidin-4-yl]-piperazin-1-yl}-2-(4-trifluoromethoxy-phenoxy)-ethanone], the IC50 is less than 10000 nM.

On to `O=C(OCc1cc(C(F)(F)F)cc(C(F)(F)F)c1)N1CCN(C2CCN(C(=O)c3ccc4[nH]c(=S)[nH]c4c3)CC2)CC1` [Compound 161, 4-[1-(2-Thioxo-2,3-dihydro-1H-benzoimidazole-5-carbonyl)-piperidin-4-yl]-piperazine-1-carboxylic acid 3,5-bis-trifluoromethyl-benzyl ester], for which the IC50 was less than 1000 nM.

Consider `O=C(OCc1cc(C(F)(F)F)cc(C(F)(F)F)c1)N1CCC(N2CCN(C(=O)c3ccc4[nH]nnc4c3)CC2)CC1` [Compound 162, 4-[4-(1H-Benzotriazole-5-carbonyl)-piperazin-1-yl]-piperidine-1-carboxylic acid 3,5-bis-trifluoromethyl-benzyl ester], for which the IC50 was less than 1000 nM.

Consider `O=C(OCc1cc(C(F)(F)F)cc(C(F)(F)F)c1)N1CCN(C2CCN(C(=O)c3ccc4[nH]c(=O)sc4c3)CC2)CC1` [Compound 163, 4-[1-(2-Oxo-2,3-dihydro-benzothiazole-6-carbonyl)-piperidin-4-yl]-piperazine-1-carboxylic acid 3,5-bis-trifluoromethyl-benzyl ester], for which the IC50 was less than 1000 nM.

`O=C(CC(=O)N1CCC(N2CCN(C(=O)c3ccc4[nH]nnc4c3)CC2)CC1)c1ccc(C(F)(F)F)cc1` [Compound 164, 1-{4-[4-(1H-Benzotriazole-5-carbonyl)-piperazin-1-yl]-piperidin-1-yl}-3-(4-trifluoromethyl-phenyl)-propane-1,3-dione]: the IC50 is less than 10000 nM.

Take `O=C(OCc1cc(F)c(F)c(C(F)(F)F)c1)N1CCN(C2CCN(C(=O)c3ccc4[nH]nnc4c3)CC2)CC1` [Compound 165, 4-[1-(1H-Benzotriazole-5-carbonyl)-piperidin-4-yl]-piperazine-1-carboxylic acid 3,4-difluoro-5-trifluoromethyl-benzyl ester]: the IC50 was less than 1000 nM.

Turning to `O=C(OCc1ccc(OC(F)(F)F)c(Br)c1)N1CCN(C2CCN(C(=O)c3ccc4[nH]nnc4c3)CC2)CC1` [Compound 166, 4-[1-(1H-Benzotriazole-5-carbonyl)-piperidin-4-yl]-piperazine-1-carboxylic acid 3-bromo-4-trifluoromethoxy-benzyl ester], the IC50 was less than 1000 nM.
